Conditions: Liquid; for mass density: Bellows volumetry; for vapor or sublimation pressure: Closed cell (Static) method

F/C=C/C(F)(F)F [trans-1,3,3,3-tetrafluoropropene]
mass density [kg/m3]
Conditions	310 K	320 K	330 K	340 K	350 K	360 K	370 K
2000 kPa	1130.2	1093.3	1054.2	1008.1	953.6	–	–
3000 kPa	1136.3	1100.9	1063.6	1021	972.3	910.5	821.5
4000 kPa	1142.1	1108	1072.2	1032.2	987.6	934.2	867.6
5000 kPa	1147.7	1114.7	1080	1042.4	1000.5	952.9	896.7

Conditions	vapor or sublimation pressure [kPa]
310 K	703
320 K	920
330 K	1183
340 K	1500
350 K	1876
360 K	2320
370 K	2841
380 K	3458

From the NIST ThermoML archive (doi:10.1021/je900756g)
